{"source": "patent US20240398779A1", "about": "“USE OF FACTOR B INHIBITORS FOR THE TREATMENT OF AGE-RELATED MACULAR DEGENERATION” (priority 2021, published 2024)", "key": {"[1]": {"test_system": "Bb", "assay": "Bb level in MAD study", "type": "in vivo, human", "conditions": "all iptacopan cohorts"}, "[2]": {"assay": "Clinical phase 2 studies in PNH, IgAN, C3G", "type": "in vivo, human"}, "[3]": {"test_system": "AP activity", "assay": "Wieslab AP assay in MAD study", "type": "in vivo, human", "conditions": "for inhibition of AP activity (Wieslab AP assay): sustained over 14 days of dosing"}, "[4]": {"assay": "First in human study in healthy volunteers, single ascending dose (SAD) and multiple ascending dose (MAD)"}, "[5]": {"assay": "39-week dog toxicity study, safety margins for human exposure", "conditions": "39-week dog study"}}}
{"smiles": "CCO[C@H]1CCN(Cc2c(OC)cc(C)c3[nH]ccc23)[C@H](c2ccc(C(=O)O)cc2)C1", "note": "[iptacopan]", "values": [{"measurement": "Bb level decrease from the baseline", "setting": "[1]", "result": "30-40%"}, {"measurement": "response rate", "setting": "[2]; 200 mg b.i.d., all tested indications (PNH, IgAN, C3G)", "result": "highest response rate"}, {"measurement": "proteinuria", "setting": "[2]; IgAN study Part 1, 200 mg b.i.d., over 90 days", "result": "reduce proteinuria"}, {"measurement": "inhibition of AP activity (Wieslab AP assay)", "setting": "[3]; 100 mg b.i.d.", "result": "≥ 80", "unit": "%"}, {"measurement": "inhibition of AP activity (Wieslab AP assay)", "setting": "[3]; 200 mg b.i.d.", "result": "≥ 80", "unit": "%"}, {"measurement": "suppression of AP activity (Wieslab AP assay)", "setting": "[3]; MAD study, 10 to 200 mg b.i.d. for 2 weeks", "result": "dose dependent suppression of AP activity"}, {"measurement": "deaths, SAEs, or AEs leading to study drug discontinuation", "setting": "[4]; 102 healthy volunteers, SAD and MAD", "result": "No deaths, SAEs, or AEs leading to study drug discontinuation were observed"}, {"measurement": "permeability", "setting": "[4]; first in human studies", "result": "good permeability"}, {"measurement": "solubility", "setting": "[4]; first in human studies", "result": "high solubility"}, {"measurement": "unbound systemic exposure (AUC-based) at 200 mg b.i.d. below lowest exposure with off-target testicular effects (LOAEL)", "setting": "[5]", "result": 17.3, "unit": "fold"}]}
